Assay results: patent US20240425475A1, “COMPOUND BASED ON QUINAZOLINE-SUBSTITUTED GLUTARIMIDE SKELETON AND USE THEREOF” (GLUETACS THERAPEUTICS (SHANGHAI) CO., LTD., priority 2022, published 2024)

Key:
[1] = system: Human diffuse large B-cell lymphoma cell line: TMD8; assay: Half inhibitory concentration (IC50) against tumor cells, CCK-8 cell viability; format: cell-based; details: 96 h treatment
Description: (§1) The tumor cells used herein were cultured in a cell culture medium listed in table 2 at 37° C. in an incubator with 5% CO2. Prior to experimentation, all cells used were correctly identified by STR profiling, and tested negative for mycoplasma through routine screenings. [table] Determination of Half Inhibitory Concentration (IC50) of the Compounds Against Tumor Cells: IC50 values of the compounds of the present disclosure (including the compounds in Table 1, and compounds of examples 1-104) were measured using the Meilun Cell Counting Kit-8 kit from Dalian Meilun Biotech Co., Ltd. Assay details are as follows: tumor cells were seeded in a 96-well plate at a density listed in Table 3. After 24 h, 100 μL of the inoculated cells were treated with 0.5 μl of the compounds of the present disclosure (including the compounds in Table 1, and compounds of examples 1-104) at 10 different successively decreasing concentrations (starting at the highest concentration of […]; 5-fold serial dilutions). After the cells were treated with the compounds of the present disclosure for a period of time, cell viability was measured according to the instructions provided with the CCK-8 kit. DMSO served as the negative control, and corresponding commercial immunomodulatory drug Avadomide (CC-122) was used as the positive control, both of which treated the cells using the same protocol as that of the compounds of the present disclosure. The growth inhibition of the compounds of the present disclosure on cells was plotted by Prism Graphpad software, and the IC50 values of the compounds of the present disclosure were calculated therefrom. [table] We tested the activities of the compounds of the present invention (including the compounds in Table 1 and Examples 1-104 compounds) in tumor cells through a dose-dependent manner. The cells were treated with the compounds of the present invention at 10 different successively decreasing concentrations (starting at the highest concentration of 10 μM; 5-fold serial dilutions) for 72 h or 96 h, and then the cell viability determination was performed in accordance with CCK-8 reagent operating instructions.

[2] = system: Human multiple myeloma cells: MM.1S; assay: as above; format: cell-based; details: MM1.S, MM.1S cells, 72 h treatment
Description: as §1

[3] = target: human Cereblon WT GST-tagged protein (Homo sapiens (Human), UniProt Q96SW2); assay: CRBN-binding affinity, CEREBLON BINDING kit (HTRF); details: HTRF inhibitory activity, binding to CRBN
Description: Determination of CRBN-Binding Affinity of Compounds
The CEREBLON BINDING kits (specification: 10,000 tests; product number: Catalog #64BDCRBNPEH; CISBIO company) was used to determine the CRBN binding ability of the compounds to be tested through a HTRF method (homogeneous time-resolved fluorescence). The specific methods are as follows: • 1. According to the instructions of the CEREBLON BINDING kits, the compounds to be tested of the present invention and lenalidomide were serially diluted using diluent #9 (1×) solution to obtain a final concentration of 2 μM for both the tested compounds and lenalidomide solution. • 2.2.5 μL of the above 2 μM of the tested compounds and lenalidomide solution, as well as the same volume of diluent #9 (1×) solution (solvent control group, Std0) were taken and added to each well of a 96-well plate, respectively. Then, 2.5 μL of (human Cereblon WT GST-tagged protein) solution was added to each well. Finally, 5 μL of the uniformly mixed thalidomide-Red reagent and GST Eu antibody working solution were added to each of the above wells. The final concentration of the tested compounds and lenalidomide in each well is 0.5 μM. • 3. The blank control wells were sequentially added with 2.5 μL of diluent #9 (1×) solution, 2.5 μL of PROTAC binding buffer, and 5 μL of uniformly mixed thalidomide-Red reagent and GST Eu antibody working solution. • 4. After sealing and incubating the solutions in the above wells at room temperature for 3 hours, the absorbance values at emission wavelengths of 620 nm and 665 nm were detected by the HTRF method using a Spark microplate reader (V3.1 SP1).
The corresponding CRBN binding inhibition rate was calculated using the following method: […]
Note: OD 665 nmcompound is the absorbance value of each well of the compounds to be tested of the present disclosure at an emission wavelength of 665 nm.
OD 620 nmcompound is the absorbance value of each well of the compounds to be tested of the present disclosure at an emission wavelength of 620 nm.
OD 665 nmcontrol is the absorbance value of the blank control well at an emission wavelength of 665 nm.
OD 620 nmcontrol is the absorbance value of the blank control well at an emission wavelength of 620 nm.
OD 665 nmstd0 is the absorbance value of the solvent control well at an emission wavelength of 665 nm.
OD 620 nmstd0 is the absorbance value of the solvent control well at an emission wavelength of 620 nm.

[4] = system: Human dexamethasone-resistant multiple myeloma cell line: MM.1R; assay: Half inhibitory concentration (IC50) against tumor cells, CCK-8 cell viability; format: cell-based; details: MM.1R cells, 72 h treatment
Description: as §1

[5] = system: Human colon cancer cell: SW620; assay: as above; format: cell-based; details: SW-620, 96 h treatment
Description: as §1

Chain of human Cereblon WT GST-tagged protein (Q96SW2 whole entry): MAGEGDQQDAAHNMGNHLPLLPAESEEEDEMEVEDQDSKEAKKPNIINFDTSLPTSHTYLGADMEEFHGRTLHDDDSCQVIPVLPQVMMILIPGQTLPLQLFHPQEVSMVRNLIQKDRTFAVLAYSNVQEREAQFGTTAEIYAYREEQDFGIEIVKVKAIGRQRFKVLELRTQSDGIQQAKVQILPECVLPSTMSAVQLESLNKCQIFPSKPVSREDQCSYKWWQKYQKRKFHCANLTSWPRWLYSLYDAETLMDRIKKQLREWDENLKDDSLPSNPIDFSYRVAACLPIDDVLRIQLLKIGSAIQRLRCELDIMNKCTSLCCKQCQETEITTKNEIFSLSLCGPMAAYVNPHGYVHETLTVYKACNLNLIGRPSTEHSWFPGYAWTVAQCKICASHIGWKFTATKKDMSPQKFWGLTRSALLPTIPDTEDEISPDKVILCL

`Cc1nc2cccc(NCCCCNC34CC5CC(CC(C5)C3)C4)c2c(=O)n1C1CCC(=O)NC1=O` (stereo not shown) [GT-01818, 3-(5-((4-(((3s,5s,7s)-adamantan-1-yl)amino)butyl)amino)-2-methyl-4-oxoquinazolin-3(4H)-yl)piperidine-2,6-dione] gave an IC50 [1] of 554 nM.
`Cc1nc2cccc(NCCCCCCNC34CC5CC(CC(C5)C3)C4)c2c(=O)n1C1CCC(=O)NC1=O` (stereo not shown) [GT-02235, 3-(5-((6-(((3s,5s,7s)-adamantan-1-yl)amino)hexyl)amino)-2-methyl-4-oxoquinazolin-3(4H)-yl)piperidine-2,6-dione] was tested, and the IC50 [2] was 39.5 nM and the IC50 [1] was 146 nM.
Compound `Cc1nc2cccc(NCCCCCCCNC34CC5CC(CC(C5)C3)C4)c2c(=O)n1C1CCC(=O)NC1=O` (stereo not shown) [GT-02237, 3-(5-((7-(((1s,3s)-adamantan-1-yl)amino)heptyl)amino)-2-methyl-4-oxoquinazolin-3(4H)-yl)piperidine-2,6-dione] has an IC50 [2] of 3.3 nM, an IC50 [1] of 8.2 nM and an IC50 [3] of 950 nM.
`Cc1nc2cccc(NCCOCCOCCNC34CC5CC(CC(C5)C3)C4)c2c(=O)n1C1CCC(=O)NC1=O` (stereo not shown) [GT-02279, 3-(5-((2-(2-(2-(((1s,3s)-adamantan-1-yl)amino)ethoxy)ethoxy)ethyl)amino)-2-methyl-4-oxoquinazolin-3(4H)-yl)piperidine-2,6-dione] gave an IC50 [1] of 438 nM.
Compound `Cc1nc2cccc(NCCCCCNC34CC5CC(CC(C5)C3)C4)c2c(=O)n1C1CCC(=O)NC1=O` (stereo not shown) [GT-02280, 3-(5-((5-(((3s,5s,7s)-adamantan-1-yl)amino)pentyl)amino)-2-methyl-4-oxoquinazolin-3(4H)-yl)piperidine-2,6-dione] has an IC50 [1] of 409 nM.
For `Cc1nc2cccc(NCCCCCNC(=O)C34CC5CC(CC(C5)C3)C4)c2c(=O)n1C1CCC(=O)NC1=O` (stereo not shown) [GT-02323, (3r,5r,7r)-N-(5-((3-(2,6-dioxopiperidin-3-yl)-2-methyl-4-oxo-3,4-dihydroquinazolin-5-yl)amino)pentyl)adamantane-1-carboxamide], the IC50 [1] was 652 nM.
`Cc1nc2cccc(NCCCCCNC3C4CC5CC(C4)CC3C5)c2c(=O)n1C1CCC(=O)NC1=O` (stereo not shown) [GT-02393, 3-(5-((5-(((1r,3r,5r,7r)-adamantan-2-yl)amino)pentyl)amino)-2-methyl-4-oxoquinazolin-3(4H)-yl)piperidine-2,6-dione] gave an IC50 [1] of 458 nM and an IC50 [3] of 420 nM.
`Cc1nc2cccc(NCCCCCCNC34CC5CC(CC3C5)C4)c2c(=O)n1C1CCC(=O)NC1=O` [GT-02494, 3-(5-((6-(((2R,3as,5S,6as)-hexahydro-2,5-methanopentalen-3a(1H)-yl)amino)hexyl)amino)-2-methyl-4-oxoquinazolin-3(4H)-yl)piperidine-2,6-dione] gave an IC50 [1] of 184 nM and an IC50 [3] of 460 nM.
`Cc1nc2cccc(NCCCCCCCNC34CC5CC(CC3C5)C4)c2c(=O)n1C1CCC(=O)NC1=O` (stereo not shown) [GT-02495, 3-(5-((7-(((3as,6as)-hexahydro-2,5-methanopentalen-3a(1H)-yl)amino)heptyl)amino)-2-methyl-4-oxoquinazolin-3(4H)-yl)piperidine-2,6-dione] gave an IC50 [4] of 9.8 nM, an IC50 [1] of 21.4 nM and an IC50 [3] of 320 nM.
In the case of `Cc1nc2cccc(NCCCCCNC34CC5CC(CC3C5)C4)c2c(=O)n1C1CCC(=O)NC1=O` [GT-02496, 3-(5-((5-(((2R,3as,5S,6as)-hexahydro-2,5-methanopentalen-3a(1H)-yl)amino)pentyl)amino)-2-methyl-4-oxoquinazolin-3(4H)-yl)piperidine-2,6-dione], the IC50 [1] is reported as 474 nM and the IC50 [3] is reported as 420 nM.
In the case of `Cc1nc2cccc(NCCCCCCCO)c2c(=O)n1C1CCC(=O)NC1=O` (stereo not shown) [GT-02598, 3-(5-((7-hydroxyheptyl)amino)-2-methyl-4-oxoquinazolin-3(4H)-yl)piperidine-2,6-dione], the IC50 [2] is reported as 17.2 nM and the IC50 [3] is reported as 3660 nM.
Work on `Cc1nc2cccc(NCCCCCCCN[C@@]34CC5CC(C)(C[C@@](C)(C5)C3)C4)c2c(=O)n1C1CCC(=O)NC1=O` (stereo partly drawn) [GT-02767, 3-(5-((7-(((1SR,3RS,5SR,7r)-3,5-dimethyladamantan-1-yl)amino)heptyl)amino)-2-methyl-4-oxoquinazolin-3(4H)-yl)piperidine-2,6-dione] yielded an IC50 [2] of 69.9 nM, an IC50 [1] of 309 nM and an IC50 [3] of 1050 nM.
With `Cc1nc2cccc(NCCCCCCCNC(C)C34CC5CC(CC(C5)C3)C4)c2c(=O)n1C1CCC(=O)NC1=O` (stereo not shown) [GT-02768, 3-(5-((7-((1-((3r,5r,7r)-adamantan-1-yl)ethyl)amino)heptyl)amino)-2-methyl-4-oxoquinazolin-3(4H)-yl)piperidine-2,6-dione] the IC50 [2] was 98.1 nM, the IC50 [1] was 294 nM and the IC50 [3] was 680 nM.
`Cc1nc2cccc(NCCCCCCCN3CC4CC4C3)c2c(=O)n1C1CCC(=O)NC1=O` (stereo not shown) [GT-02772, 3-(5-((7-(3-azabicyclo[3.1.0]hexan-3-yl)heptyl)amino)-2-methyl-4-oxoquinazolin-3(4H)-yl)piperidine-2,6-dione] was tested, and the IC50 [1] was 448 nM.
In the case of `Cc1nc2cccc(NCCCCCCCN3CCC4(CC3)CC(F)(F)C4)c2c(=O)n1C1CCC(=O)NC1=O` (stereo not shown) [GT-02773, 3-(5-((7-(2,2-difluoro-7-azaspiro[3.5]nonan-7-yl)heptyl)amino)-2-methyl-4-oxoquinazolin-3(4H)-yl)piperidine-2,6-dione], the IC50 [1] is reported as 440 nM and the IC50 [3] is reported as 2800 nM.
`Cc1nc2cccc(NCCCCCCCNC34CCC(F)(CC3)CC4)c2c(=O)n1C1CCC(=O)NC1=O` (stereo not shown) [GT-02774, 3-(5-((7-((4-fluorobicyclo[2.2.2]octan-1-yl)amino)heptyl)amino)-2-methyl-4-oxoquinazolin-3(4H)-yl)piperidine-2,6-dione] showed an IC50 [1] of 102 nM and an IC50 [3] of 2610 nM.
In the case of `Cc1nc2cccc(CCCCCCCCNC34CC5CC(CC(C5)C3)C4)c2c(=O)n1C1CCC(=O)NC1=O` (stereo not shown) [GT-02797, 3-(5-(8-(((1s,3s)-adamantan-1-yl)amino)octyl)-2-methyl-4-oxoquinazolin-3(4H)-yl)piperidine-2,6-dione], the IC50 [1] is reported as 312 nM and the IC50 [3] is reported as 180 nM.
`Cc1nc2cccc(SCCN3CCN(CCC45CC6CC(CC(C6)C4)C5)CC3)c2c(=O)n1C1CCC(=O)NC1=O` (stereo not shown) [GT-03305, 3-(5-((2-(4-(2-((3r,5r,7r)-adamantan-1-yl)ethyl)piperazin-1-yl)ethyl)thio)-2-methyl-4-oxoquinazolin-3(4H)-yl)piperidine-2,6-dione] gave an IC50 [5] of 717 nM and an IC50 [3] of 1200 nM.
`Cc1nc2cccc(SCCN3CCN(c4ccc(C#N)cc4F)CC3)c2c(=O)n1C1CCC(=O)NC1=O` (stereo not shown) [GT-03314, 4-(4-(2-((3-(2,6-dioxopiperidin-3-yl)-2-methyl-4-oxo-3,4-dihydroquinazolin-5-yl)thio)ethyl)piperazin-1-yl)-3-fluorobenzonitrile] gave an IC50 [5] of 709 nM.
With `Cc1cc2cccc(NCCN3CCN(C(c4ccc(F)cc4)c4ccc(F)cc4)CC3)c2c(=O)n1C1CCC(=O)NC1=O` (stereo not shown) [GT-03388, 3-(8-((2-(4-(bis(4-fluorophenyl)methyl)piperazin-1-yl)ethyl)amino)-3-methyl-1-oxoisoquinolin-2(1H)-yl)piperidine-2,6-dione] the IC50 [4] was 352 nM.
